Values quoted from earlier work as cited in patent publication US11654154B2, “Process for preparing injectable Fosaprepitant Dimeglumine compositions having improved storage stability” (Navinta III Inc, priority 2019, dated 2023).
“Also recorded” adds a separate entry of the source.

Assays:
[1] = for Solubility in water / aqueous solution (in words): water or aqueous solution
[2] = system: chemotherapy induced nausea and vomiting (CINV); details: added to standard regimen of ondansetron and dexamethasone; highly emetogenic cisplatin-based chemotherapy

Row | SMILES | Solubility in water ([1]; water) | Solubility in water / aqueous solution (in words) [1] | Protection against CINV [2]
1 | C[C@@H](O[C@H]1OCCN(Cc2nc(O)n(P(=O)(O)O)n2)[C@H]1c1ccc(F)cc1)c1cc(C(F)(F)F)cc(C(F)(F)F)c1 [Fosaprepitant] | about 300 mg/mL | good solubility | –
2 | C[C@@H](O[C@H]1OCCN(Cc2n[nH]c(=O)[nH]2)[C@H]1c1ccc(F)cc1)c1cc(C(F)(F)F)cc(C(F)(F)F)c1 [Aprepitant] | – | limited solubility; also recorded: minimal solubility | consistently superior protection
